Laboratory results: patent publication US5830910A (priority 1995, dated 1998)
Read-outs that look alike come from different tables or passages of the source.

Key:
[1] = system: cultured hippocampal neurons; assay: cells; format: cell-based, rat; conditions: Rattus norvegicus, Hippocampal neuron
From the text: (§1) Dissociated embryonic rat hippocampal cell cultures were established and maintained. All procedures conformed with the NIH Guide for the Care and Use of Laboratory Animals and were approved by the University of Kentucky Animal Care and Use Committee. Cultures were maintained on a polyethyleneimine-coated substrate in plastic 35-mm dishes or 96 wall plates (for cell survival studies) or glass-bottom 35-mm dishes (for [Ca^2+ ]i imaging studies). The cell density was ^~ 70-100 cells/mm^2. Cells were maintained in Eagle's minimum essential medium supplemented 10% with fetal bovine serum and containing 20 mM sodium pyruvate. […] Aβ25-35 (Bachem, lot ZJ744) and Aβ1-40 (Bachem, lot ZK600) were stored in the lyophilized form, and stocks were prepared immediately before use by dissolving the peptide at a concentration of 1 mM in sterile distilled water. […] Glutamate and colchicine (Sigma) were prepared as 200-500x stocks in saline. Cytochalasins D and E (Sigma) and calcium ionophore 4-bromo-A23187 (Calbiochem) were prepared as 500x stocks in dimethyl sulfoxide. Vitamin E (α-tocopherol; Sigma) was prepared as a 500x stock in ethanol. Nordihydroguaiaretic acid and FeSo4 were prepared as 500x stocks in sterile water.
(§2) Neuronal survival was quantified by counting viable neurons in the same microscope fields (10x objective) immediately before experimental treatment and at time points after treatment. In addition, cells were grown in 96-well plates and Alamar blue fluorescence (Alamar Laboratories)was quantified by using a fluorescence plate reader. Alamar Blue is a non-fluorescent substrate that, after reduction by cell metabolites, becomes fluorescent. Usually neurons that died in the time intervals (20-48 h) between examination points were absent. Viability of the remaining neurons was assessed by morphological criteria. Neutrons with intact neurites of uniform diameter and a soma with a smooth, round appearance were considered viable, whereas neurons with fragmented neurites and a vacuolated or swollen soma were considered nonviable. Survival values were expressed as percentages of the initial number of neurons present before experimental treatment. Statistical comparisons were made using ANOVA and Scheffe post-hoc tests for pairwise comparisons.
Values represent the means and SEM of 4 separate cultures (cell counts) or 4 culture wells (Alamar blue assay). ^a p<0.05 compared to control value. ^b p<0.001 compound to control value. ^c p<0.01 compared to value for glutamate-treated cultures. ^d p<0.005 compared to value for glutamate-treated cultures. ^e p<0.001 compared to value for Aβ-treated cultures. ^f p<0.001 compared to value for cultures treated with 20 μM glutamate. ^g p<0.001 compared to cultures treated with 50 μM Aβ+20 μM glutamate. n.d. not determined.

[2] = system: cultured hippocampal neurons; assay: cells; format: cell-based, rat
From the text: as §1, §2
FIG. 5. […] Cytochalasin D was added to cultures 30 min prior to exposure to glutamate, and control cultures were exposed to 0.2% dimethylsulfoxide.
(A) Neuronal survival was quantified in cultures that had been pretreated with the indicated concentrations of cytochalasin D and then exposed to 50 μM glutamate for 20 h. Values represent the means and SEM of determinations made in four separate cultures. […] Pairwise statistical comparisons of cytochalasin-treated cultures with the control survival (Scheffe's test) indicated 1 nM cytochalasin D, P<0.05; 10 nM cytochalasin D, P<0.001; 100 and 1000 nM cytochalasin D, P<0.0001.
(B) Neuronal survival was quantified in cultures that had been pretreated with either vehicle (control) or 100 nM cytochalasin D and then exposed to the indicated concentrations of glutamate for 20 h. Values represent the means and SEM of determinations made in four separate cultures. […] ANOVA with Scheffe's post hoc test.
FIG. 6. (A) Cultures were pretreated with 100 nM cytochalasin D (CyD), 100 nM cytochalasin E (CyE), or 100 nM colchicine (Colch). Cultures were then exposed to 50 μM glutamate for 20 h. Values for neuronal survival represent the means and SEM of determinations made in four separate cultures. *P<0.001 compared to control value. **P<0.001 compared to value for cultures exposed to glutamate alone.
[…] Values represent the means and SEM of determinations made in four separate cultures. *P<0.01 compared to value for cultures exposed to 20 μM glutamate alone. **P<0.05 compared to cultures exposed to 50 μM glutamate alone.

[3] = system: cultured hippocampal neurons; assay: cells; format: cell-based, rat; remark: listed apart in the source
[4] = system: cultured hippocampal neurons; assay: iron (FeSO4) neurotoxicity; format: cell-based, rat
From the text: as §1, §2
FIG. 8. Cultures were preincubated 1 h in the presence of 0.5% dimethylsulfoxide (control), 100 nM cytochalasin D, 50 μg/ml vitamin E (VitE), or 2 μM nordihydroguairetic acid (NDGA). Cultures were then exposed for 6 h to the indicated concentrations of FeSO4 and neuronal survival was quantified. Values represent the means and SEM of determinations made in four separate cultures. *P<0.001 compared to value for cultures exposed to 100 μM FeSO4 alone.

[5] = system: hippocampal region CA3 neurons; assay: kainate lesion paradigm, CA3 neurons; format: in vivo, rat (Sprague-Dawley)
Protocol: A kainate lesion paradigm was employed in adult rats to determine whether cytochalasin D was also excitoprotective. Twenty-four adult male Sprague-Dawley rats (250-300 g) were divided into the indicated experimental groups (4-5 rats/group). Kainate (0.5 µg/[…]) was injected stereotaxically into region CA1 of the right hippocampus of anesthetized rats. Cytochalasin D (the indicated concentration in 1 μl of saline-1% DMSO) or vehicle was infused into the right lateral ventricle during a 5-10 min period immediately following kainate injection. Rats were killed 48 hr later and perfused transcardially with 4% paraformaldehyde. Brain sections (30 μm) were stained with cresyl violet and stained neurons in three adjacent 40X microscope fields of hippocampal region CA3 were counted (5 sections/rat) . The neuronal counts were performed in sections removed approximately 200-400 μm from the injection site. This method results in highly reproducible, 75-99%, neuronal loss in the CA3 region in over 99% of the rats injected with kainate (calculations based on 302 rats receiving intra-hippocampal kainate). […] Approximately 80% of the neurons were killed by kainate in control animals receiving an intracerebroventricular infusion of saline immediately following kainate administration.
Cresyl violet-stained coronal sections from brains of rats administered kainate alone (left) of kainate plus cytochalasin D (CyD; right). […] Lower micrographs are high magnification of a region of CA3 from the sections shown in the upper panels.
FIG. 3. Counts of viable neurons were made in region CA3 of Sham-operated rats, and rats infused intraventricularly with vehicle or increasing concentration of cytochalasin D […] unilateral kainate injection into region CA1 of the hippocampus. Neuronal survival in the kainate injected hippocampus is expressed as a percentage of neurons in the contralateral hippocampus. Values represent the mean and SEM (4 or 5 rats/group). *p<0.01 compared to value for sham rats. **p<0.01 compared to value for vehicle-infused rats. (ANOVA with Scheffe's post-hoc test).

[6] = system: cultured hippocampal neurons; format: cell-based, rat
From the text: as §1, §2
FIG. 12. (A) Cultures were pretreated for 1 h with vehicle 0.2% dimethyl sulfoxide (Control) or 100 nM cytochalasin D (CyD) and were exposed to the indicated concentrations of Aβ25-35 for 48 h. Data are mean and SEM values of determinations made in four separate cultures.
(B) Cultures were pretreated for 1 h with the indicated concentrations of cytochalasin D and then exposed to 50 μM Aβ25-35; parallel cultures were exposed to cytochalasin D alone (Control) . Data are mean and SEM values of determinations made in four separate cultures.
FIG. 14. Cultures were exposed to 100 nM colchicine; 50 μM Aβ; 100 nM colchicine plus 50 μM Aβ; 100 nM cytochalasin E (CyE) plus Aβ (colchicine and cytochalasin E were added 1 h before Aβ); neuronal survival was assessed 48 h later. Data are mean and SEM values of determinations made in four separate cultures. *p<0.01, compared with values for control or colchicine alone. **p<0.01, compared with value for cultures exposed to Aβ alone.

[7] = system: neuronal [Ca^2+]i in cultured hippocampal neurons; assay: measurement of [Ca^2+]i, fura-2 imaging; format: cell-based, rat; conditions: 10 μM, 3 h pretreatment; 50 μM glutamate
From the text: as §1
Fluorescence ratio imaging of the Ca^2+ indicator dye fura-2 was used to quantify [Ca^2+ ]i in neuronal somata. Cells were incubated for 30-40 min in the presence of 2 μM acetoxymethyl ester form of the [Ca^2+ ]i indicator dye fura-2 and were then washed twice (2 ml/wash) with fresh medium and allowed to incubate at least 40 min before imaging. Immediately before imaging, the normal culture medium was replaced with Hanks' balanced saline solution (GIBCO) containing 10 mM HEPES buffer and 10 mM of glucose. Cells were imaged using a Zeiss Attofluor system with a oil objective or Quantex system with a 40x oil objective. The ratio of the fluorescence emission using two different excitation wavelengths (334 and 380 nm) was used to determine [Ca^2+ ]i. The system was calibrated using solutions containing either no Ca^2+ or a saturating level of Ca^2+ (1 mM) according to the following formula: [Ca^2+ ]i =KD [(R-Rmin) / (Rmax -R)] (F0 /FS). Values represent the average [Ca^2+ ]i in the neuronal cell body. Experimental treatments were added to the bathing medium by dilution from 100-500x stocks.
(A) Cultures were pretreated for 1 hr with 100 nM cytochalasin D and then [Ca^2+ ]i in neurons was monitored prior to and following exposure to 50 μM glutamate. The records represent the mean [Ca^2+ ]i in 8-12 neurons. Similar results were obtained in 4 separate experiments.
(B) Aβ-induced potentiation of [Ca^2+ ]i response to glutamate is abrogated by cytochalasin D. Cultures were left untreated (Control) or were exposed to 20 μM Aβ25-35 for 6 hr or cytochalasin D plus Aβ25-35 for 6 hr. The [Ca^2+ ]i was then monitored prior to following exposure to 50 μM glutamate. Values represent the means of 8-14 neurons. Similar results were obtained in 3 separate experiments.
(C) Cultures were pretreated for 3 hr with 50 μM Aβ alone or in combination with 100 nM cytochalasin D. The [Ca^2+ ]i in neurons was then monitored prior to and following exposure to 50 mM KCl. Values represent the mean of 14-23 neurons. Similar results were obtained in a separate experiment.
(D) Cultures were pretreated for 1 h with 100 nM cytochalasin D. The [Ca^2+ ]i in neurons was measured immediately prior to, and at 5 min following, exposure to the indicated concentrations of glutamate. Values represent the means and SEM of determinations made in 17-26 neurons. *P<0.05 (10 μM glutamate), P<0.02 (50 μM glutamate), P<0.01 (100 μAM glutamate) compared to corresponding control values.
FIG. 9. Cultures were pretreated for 3 h with vehicle (control) or 10 μM jasplakinolide. The [Ca^2+ ]i was monitored prior to and following exposure to 50 μM glutamate. Values represent the mean of determinations made in 10-12 neurons. Similar results were obtained in two additional experiments.
FIG. 10. […]

[8] = read-out: Neuron Survival (% of control), Alamar Blue Assay

N[C@@H](CCC(=O)O)C(=O)O [Glutamate, glutamate, reference compound]
viability at 20 µM [1, 8]: 74 ± 0.7% | viability at 100 µM [1, 8]: 18 ± 5.4% | viability at 100 µM ([1]; read-out: Neuron Survival (% of control), Cell Counts): 15 ± 3.3% | CC50 ([2]; Rattus norvegicus, Hippocampal neuron, 20 h, read-out: ED50 for reduction in neuronal survival): ~35 µM | cytotoxicity at 100 µM ([2]; Rattus norvegicus, Hippocampal neuron, 20 h, read-out: maximum killing of neurons): > 80% | cytotoxicity at 50 µM ([2]; Rattus norvegicus, Hippocampal neuron, 20 h, read-out: neurons killed): > 70% | viability at 100 µM ([3]; Rattus norvegicus, Hippocampal neuron, 24 h, read-out: neuronal survival in cultures exposed to glutamate): < 20%

O=S(=O)([O-])[O-].[Fe+2] [FeSo4]
loss of neurons ([4]; FeSO4 10-100 nM as printed, 6 h): concentration-dependent loss of neurons

C=C(C)[C@H]1CN[C@H](C(=O)O)[C@H]1CC(=O)O [Kainate, kainate, reference compound]
neurons killed by kainate ([5]; control animals receiving i.c.v. saline, 48 hr): Approximately 80% | neuronal loss in the CA3 region ([5]; intrahippocampal kainate, over 99% of rats (302 rats)): 75-99%

CC(Cc1ccc(O)c(O)c1)C(C)Cc1ccc(O)c(O)c1 (centres unmarked) [nordihydro-guaiaretic acid, Nordihydroguaiaretic acid]
effect on neurotoxicity of iron ([4]; 50 μg/ml vitamin E or 2 μM NDGA, 1 h preincubation): completely blocked

C[C@H]1C/C=C/[C@H]2[C@@H]3O[C@]3(C)[C@@H](C)[C@H]3[C@H](Cc4ccccc4)NC(=O)[C@]32OC(=O)O/C=C/[C@@](C)(O)C1=O [Cytochalasin E, cytochalasin E]
protection against glutamate toxicity ([2]; 100 nM, 50 μM glutamate, 20 h): significant protection against glutamate toxicity | protection against toxicity of glutamate ([2]; 10-100 nM): protected | effect on Aβ neurotoxicity ([6]; 100 nM, added 1 h before 50 μM Aβ, 48 h): attenuated Aβ neurotoxicity significantly | protection against toxicity of Aβ ([6]; 10-100 nM): protected

CC1=CC(C)CC(C)OC(=O)CC(c2ccc(O)cc2)NC(=O)C(Cc2c(Br)[nH]c3ccccc23)N(C)C(=O)C(C)NC(=O)C(C)C1 (centres unmarked) [Jasplakinolide, jasplakinolide, reference compound]
effect on glutamate-induced elevation of [Ca^2+]i [7]: potentiated | effect on glutamate neurotoxicity ([3]; preincubated 3 h, 10 μM (FIG. 6B legend: 1 h, 5 μM)): significantly potentiated
